Source: ChEMBL document CHEMBL3045377, “An aphid repellent glycoside from Solanum laxum” (2000)

Assays:
Type in all cases: functional
Schizaphis graminum [1] = assay: Feeding deterrence activity against Schizaphis graminum fed on artificial diet containing compound assessed as relative survival at 250 uM after 24 hr by non-choice assay (reference value: 100 +/-0%)
Schizaphis graminum [2] = assay: Feeding deterrence activity against Schizaphis graminum fed on artificial diet containing compound assessed as relative survival at 500 uM after 12 hr by non-choice assay (reference value: 100 +/-0%)
Schizaphis graminum [3] = assay: Feeding deterrence activity against Schizaphis graminum fed on artificial diet containing compound assessed as relative survival at 250 uM after 12 hr by non-choice assay (reference value: 100 +/-0%)
Schizaphis graminum [4] = assay: Feeding deterrence activity against Schizaphis graminum fed on artificial diet containing compound assessed as relative survival at 50 uM after 24 hr by non-choice assay (reference value: 100 +/-0%)
Schizaphis graminum [5] = assay: Toxicity against Schizaphis graminum fed on artificial diet containing compound assessed as relative survival at 50 uM after 24 hr by non-choice assay (reference value: 100 +/-0%)
Schizaphis graminum [6] = assay: Feeding deterrence activity against Schizaphis graminum fed on artificial diet containing compound assessed as relative survival at 100 uM after 24 hr by non-choice assay (reference value: 100 +/-0%)
Schizaphis graminum [7] = assay: Toxicity against Schizaphis graminum fed on artificial diet containing compound assessed as relative survival at 250 uM after 24 hr by non-choice assay (reference value: 100 +/-0%)
Schizaphis graminum [8] = assay: Feeding deterrence activity against Schizaphis graminum fed on artificial diet containing compound assessed as relative survival at 100 uM after 12 hr by non-choice assay (reference value: 100 +/-0%)
Schizaphis graminum [9] = assay: Toxicity against Schizaphis graminum fed on artificial diet containing compound assessed as relative survival at 100 uM after 24 hr by non-choice assay (reference value: 100 +/-0%)
Schizaphis graminum [10] = assay: Feeding deterrence activity against Schizaphis graminum fed on artificial diet containing compound assessed as relative survival at 500 uM after 24 hr by non-choice assay (reference value: 100 +/-0%)
Schizaphis graminum [11] = assay: Feeding deterrence activity against Schizaphis graminum fed on artificial diet containing compound assessed as relative survival at 50 uM after 12 hr by non-choice assay (reference value: 100 +/-0%)
Schizaphis graminum [12] = assay: Toxicity against Schizaphis graminum fed on artificial diet containing compound assessed as relative survival at 500 uM after 24 hr by non-choice assay (reference value: 100 +/-0%)

Structure (SMILES): C[C@H]1CC[C@@]2(OC1)O[C@H]1[C@H](O)[C@H]3[C@@H]4CC=C5C[C@@H](O[C@@H]6O[C@H](CO)[C@H](O[C@@H]7O[C@H](CO)[C@@H](O)[C@H](O)[C@H]7O[C@@H]7O[C@H](CO)[C@@H](O)[C@H](O)[C@H]7O)[C@H](O)[C@H]6O[C@@H]6O[C@@H](C)[C@H](O)[C@@H](O)[C@H]6O)CC[C@]5(C)[C@H]4CC[C@]3(C)[C@H]1[C@@H]2C [Luciamin]
- survival at 250 µM (Schizaphis graminum [1]): 72%
- survival at 500 µM (Schizaphis graminum [2]): 70%
- survival at 250 µM (Schizaphis graminum [3]): 85%
- survival at 50 µM (Schizaphis graminum [4]): 64%
- survival at 50 µM (Schizaphis graminum [5]): 47%
- survival at 100 µM (Schizaphis graminum [6]): 70%
- survival at 250 µM (Schizaphis graminum [7]): 48%
- survival at 100 µM (Schizaphis graminum [8]): 80%
- survival at 100 µM (Schizaphis graminum [9]): 49%
- survival at 500 µM (Schizaphis graminum [10]): 76%
- survival at 50 µM (Schizaphis graminum [11]): 93%
- survival at 500 µM (Schizaphis graminum [12]): 40%
